Our source for the IC50 values is patent US7632946B2, “Naphthyridine-based antibacterial compositions” (Abbott Laboratories, priority 2004, dated 2009).

For the assay, the system named is bacterial protein synthesis (S30 extract from quinolone-succeptable Streptococcus pneumoniae ATCC 46919). The assay is described as follows: Cell-free translation assay, firefly luciferase reporter, S30 Streptococcus pneumoniae extract. The class given is biochemical. To be noted: luciferase mRNA, read-out: IC50, concentration causing 50% inhibition of bacterial protein synthesis. Here is the method:
Bacterial protein synthesis inhibitory activity of representative compounds of this invention having formula (I) and the commercially-available antibacterials in TABLE 2 was determined by translation assays using the firefly luciferase reporter system described by Murray et al., (2001), “Staphylococcus aureus Cell Extract Transcription-Translation Assay: Firefly Luciferase Reporter System for Evaluating Protein Translation Inhibitors,” Antimicrob. Agents Chemother. 45(6): 1900-1904, but replacing the Staphylococcus aureus S30 extract described therein with S30 Streptococcus pneumoniae extract from quinolone-succeptable Streptococcus pneumoniae ATCC 46919, and replacing plasmid coding for the luciferase gene with mRNA (encoding produced by in vitro transcription from the plasmid pAS10rbs3) which encoded the luciferase gene with an upstream Streptococcus pneumoniae promoter and Shine-Dalgarno site.

Consider `CC(=O)NC[C@H]1CN(c2ccc(N3CCOCC3)c(F)c2)C(=O)O1` [Linezolid], for which the IC50 was roughly 3000 nM.
